In the supplement of paper PMC10307832:

Assays:
Assay in all cases: relative viability (nuclei count vs DMSO), 5 days (fraction); higher = more cells survive
Tosedostat + Dasatinib = compound: CC(C)C[C@@H](C(=O)N[C@H](C(=O)OC1CCCC1)c1ccccc1)[C@H](O)C(=O)NO [Tosedostat] + Cc1nc(Nc2ncc(C(=O)Nc3c(C)cccc3Cl)s2)cc(N2CCN(CCO)CC2)n1 [Dasatinib] (partner 0.075 µM)
How it was run: (§1)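 Lung cancer cell lines, seeded in 1536-well plates, were treated the following day by pin tool with a single drug or with five library-drug doses (not always all listed) in √10 steps on top of a fixed anchor-drug dose. Cells were fixed and nuclei stained in one step after 5 days, and nuclei were counted. Relative viability is the nuclei count for treated wells divided by that for vehicle wells, reported as medians of duplicate plates.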

[1] = compound: CC1=NN=C(O1)C2=NN=C(C=C2)N3CCC(CC3)OC4=C(C=CC(=C4)F)Cl + CS(=O)(=O)N1CCN(Cc2cc3nc(-c4cccc5[nH]ncc45)nc(N4CCOCC4)c3s2)CC1 [Pictilisib] (partner 1 µM)
How it was run: as §1

Tosedostat + Olaparib = compound: CC(C)C[C@@H](C(=O)N[C@H](C(=O)OC1CCCC1)c1ccccc1)[C@H](O)C(=O)NO [Tosedostat] + O=C(c1cc(Cc2n[nH]c(=O)c3ccccc23)ccc1F)N1CCN(C(=O)C2CC2)CC1 [Olaparib] (partner 8 µM)
How it was run: as §1

[2] = compound: CC1=NN=C(O1)C2=NN=C(C=C2)N3CCC(CC3)OC4=C(C=CC(=C4)F)Cl + O=C(c1cc(Cc2n[nH]c(=O)c3ccccc23)ccc1F)N1CCN(C(=O)C2CC2)CC1 [Olaparib] (partner 8 µM)
How it was run: as §1

Cell Line: UMC-11
- relative viability (Tosedostat + Dasatinib; first compound 0.02 µM): 0.499
- relative viability (Tosedostat + Dasatinib; first compound 0.06325 µM): 0.454
- relative viability (Tosedostat + Dasatinib; first compound 0.2 µM): 0.453
- relative viability (Tosedostat + Dasatinib; first compound 0.6325 µM): 0.448
- relative viability (Tosedostat + Dasatinib; first compound 2 µM): 0.504
- relative viability ([1]; first compound 0.253 µM): 0.723
- relative viability ([1]; first compound 0.8 µM): 0.65
- relative viability ([1]; first compound 2.53 µM): 0.797
- relative viability ([1]; first compound 8 µM): 0.684
- relative viability (Tosedostat + Olaparib; first compound 0.02 µM): 0.374
- relative viability (Tosedostat + Olaparib; first compound 0.06325 µM): 0.336
- relative viability (Tosedostat + Olaparib; first compound 0.2 µM): 0.287
- relative viability (Tosedostat + Olaparib; first compound 0.6325 µM): 0.273
- relative viability (Tosedostat + Olaparib; first compound 2 µM): 0.327
- relative viability ([2]; first compound 0.253 µM): 0.244
- relative viability ([2]; first compound 0.8 µM): 0.379
- relative viability ([2]; first compound 2.53 µM): 0.396
- relative viability ([2]; first compound 8 µM): 0.233
